Source: the NIST ThermoML archive (doi:10.1016/j.jct.2009.07.020)
Numbers after ± are expanded uncertainties.

Legend:
[1] = 293.15 K, 101.33 kPa, Liquid; for speed of sound: Sing-around technique in a fixed-path interferometer; for mass density: Vibrating tube method
[2] = xn = mol fraction of the nth substance listed; conditions: 101 kPa, Liquid; for speed of sound: Sing-around technique in a fixed-path interferometer; for mass density: Vibrating tube method

BrCCBr [1,2-dibromoethane]
[1]
Conditions | mass density [kg/m3] | speed of sound [m/s]
– | 2179.6 ± 0.74 | 1007 ± 0.89

BrCCBr [1,2-dibromoethane] + CCCCCCCCCCO
[2]
Conditions | mass density, 293.15 K [kg/m3] | mass density, 313.15 K [kg/m3] | speed of sound, 293.15 K [m/s] | speed of sound, 313.15 K [m/s]
x1 = 0.0713 | 873.696 ± 0.17 | 859.289 ± 0.18 | 1363.1 ± 0.91 | 1296.4 ± 0.9
x1 = 0.1171 | 903.742 ± 0.18 | 888.874 ± 0.18 | 1341.8 ± 0.91 | 1275.4 ± 0.89
x1 = 0.1704 | 940.915 ± 0.18 | 925.398 ± 0.18 | 1317.2 ± 0.9 | 1251.8 ± 0.88
x1 = 0.2858 | 1030.69 ± 0.2 | 1013.6 ± 0.19 | 1266 ± 0.88 | 1202.9 ± 0.86
x1 = 0.3911 | 1125.7 ± 0.25 | 1106.72 ± 0.24 | 1218.3 ± 0.86 | 1157.2 ± 0.84
x1 = 0.51 | 1252.15 ± 0.3 | 1230.3 ± 0.29 | 1167.7 ± 0.84 | 1108.9 ± 0.83
x1 = 0.543 | 1291.44 ± 0.34 | 1268.7 ± 0.33 | 1153.4 ± 0.84 | 1095 ± 0.82
x1 = 0.5903 | 1351.8 ± 0.39 | 1327.54 ± 0.37 | 1134.1 ± 0.83 | 1076.8 ± 0.82
x1 = 0.6875 | 1492.47 ± 0.45 | 1464.54 ± 0.43 | 1095.3 ± 0.82 | 1040.5 ± 0.8
x1 = 0.7289 | 1560.17 ± 0.51 | 1530.45 ± 0.49 | 1080 ± 0.81 | 1025.9 ± 0.79
x1 = 0.7873 | 1665.23 ± 0.58 | 1632.9 ± 0.56 | 1059.7 ± 0.8 | 1006.6 ± 0.79
x1 = 0.8411 | 1773.36 ± 0.66 | 1738.48 ± 0.63 | 1042.2 ± 0.8 | 990.48 ± 0.78
x1 = 0.9006 | 1908.2 ± 0.75 | 1870.5 ± 0.72 | 1025.5 ± 0.79 | 975.34 ± 0.77
x1 = 0.9495 | 2033.54 ± 0.84 | 1993.5 ± 0.82 | 1015.6 ± 0.78 | 965.65 ± 0.77
x1 = 1 | 2179.6 ± 0.73 | 2137.7 ± 0.71 | 1007 ± 0.78 | 955.97 ± 0.77

ClCCCl [1,2-dichloroethane]
[1]
Conditions | mass density [kg/m3] | speed of sound [m/s]
– | 1252.74 ± 0.22 | 1212.8 ± 0.94

ClCCCl [1,2-dichloroethane] + CCCCCCCCCCO
[2]
Conditions | mass density, 293.15 K [kg/m3] | mass density, 313.15 K [kg/m3] | speed of sound, 293.15 K [m/s] | speed of sound, 313.15 K [m/s]
x1 = 0.0692 | 841.579 ± 0.14 | 827.391 ± 0.14 | 1382.8 ± 0.92 | 1314.9 ± 0.9
x1 = 0.1136 | 849.567 ± 0.14 | 835.077 ± 0.14 | 1373.9 ± 0.92 | 1305.7 ± 0.9
x1 = 0.2034 | 867.401 ± 0.13 | 852.221 ± 0.14 | 1355.3 ± 0.91 | 1287.4 ± 0.89
x1 = 0.2938 | 887.762 ± 0.13 | 871.824 ± 0.13 | 1335.6 ± 0.9 | 1267.8 ± 0.89
x1 = 0.3645 | 905.827 ± 0.13 | 889.228 ± 0.13 | 1319.7 ± 0.9 | 1251.3 ± 0.88
x1 = 0.507 | 949.509 ± 0.12 | 931.327 ± 0.12 | 1287.5 ± 0.89 | 1217.8 ± 0.88
x1 = 0.6043 | 986.214 ± 0.13 | 966.695 ± 0.13 | 1265.4 ± 0.89 | 1195.1 ± 0.87
x1 = 0.699 | 1029.23 ± 0.14 | 1008.07 ± 0.13 | 1244.6 ± 0.88 | 1174.3 ± 0.86
x1 = 0.7455 | 1053.66 ± 0.16 | 1031.55 ± 0.15 | 1235.1 ± 0.88 | 1164.8 ± 0.86
x1 = 0.7816 | 1074.54 ± 0.17 | 1051.57 ± 0.17 | 1228.3 ± 0.88 | 1157.8 ± 0.86
x1 = 0.8142 | 1094.99 ± 0.19 | 1071.24 ± 0.18 | 1222.5 ± 0.88 | 1151.9 ± 0.86
x1 = 0.8429 | 1114.4 ± 0.21 | 1089.86 ± 0.2 | 1218.1 ± 0.88 | 1147.4 ± 0.86
x1 = 0.9034 | 1160.56 ± 0.24 | 1134.21 ± 0.22 | 1211.6 ± 0.88 | 1140.5 ± 0.85
x1 = 0.9579 | 1209.39 ± 0.27 | 1181.34 ± 0.26 | 1210.4 ± 0.88 | 1136.8 ± 0.86
x1 = 1 | 1252.74 ± 0.22 | 1223.38 ± 0.2 | 1212.8 ± 0.89 | 1136 ± 0.87
